Calls of active or inactive are those of the source. No cut-off for these calls is given here.
What was measured:
Format in all cases: functional, organism-based
[1] = tested on: Aspergillus niger; experiment: Antimicrobial activity against Aspergillus niger ATCC 9642 at 200 ug/mL
[2] = tested on: Pseudomonas aeruginosa; experiment: Antimicrobial activity against Pseudomonas aeruginosa ATCC 15442 at 200 ug/mL
[3] = tested on: Staphylococcus aureus; experiment: Antimicrobial activity against Staphylococcus aureus ATCC 6538 at 100 ug/mL
[4] = tested on: Saccharomyces cerevisiae; experiment: Antimicrobial activity against Saccharomyces cerevisiae ATCC 18824 at 200 ug/mL
[5] = tested on: Staphylococcus aureus; experiment: Antimicrobial activity against Staphylococcus aureus ATCC 6538 at 1 ug/mL
[6] = tested on: Aspergillus niger; experiment: Antimicrobial activity against Aspergillus niger ATCC 9642 at 100 ug/mL
[7] = tested on: Staphylococcus aureus; experiment: Antimicrobial activity against Staphylococcus aureus ATCC 6538 at 10 ug/mL
[8] = tested on: Saccharomyces cerevisiae; experiment: Antimicrobial activity against Saccharomyces cerevisiae ATCC 18824 at 1 ug/mL
[9] = tested on: Staphylococcus aureus; experiment: Antimicrobial activity against Staphylococcus aureus ATCC 6538 at 200 ug/mL
[10] = tested on: Pseudomonas aeruginosa; experiment: Antimicrobial activity against Pseudomonas aeruginosa ATCC 15442 at 100 ug/mL
[11] = tested on: Saccharomyces cerevisiae; experiment: Antimicrobial activity against Saccharomyces cerevisiae ATCC 18824 at 10 ug/mL
[12] = tested on: Aspergillus niger; experiment: Antimicrobial activity against Aspergillus niger ATCC 9642 at 10 ug/mL
[13] = tested on: Pseudomonas aeruginosa; experiment: Antimicrobial activity against Pseudomonas aeruginosa ATCC 15442 at 10 ug/mL
[14] = tested on: Saccharomyces cerevisiae; experiment: Antimicrobial activity against Saccharomyces cerevisiae ATCC 18824 at 100 ug/mL
[15] = tested on: Aspergillus niger; experiment: Antimicrobial activity against Aspergillus niger ATCC 9642 at 1 ug/mL
[16] = tested on: Pseudomonas aeruginosa; experiment: Antimicrobial activity against Pseudomonas aeruginosa ATCC 15442 at 1 ug/mL

## C/C(=C\Cn1c[n+](C)c2ncnc(N)c21)CC[C@]1(C)[C@@H](C)CC[C@@]2(C)C(CO)=CCC[C@@H]12
[1]
  Activity: inactive
[2]
  Activity: inactive
[3]
  Activity: inactive
[4]
  Activity: inactive
[5]
  Activity: inactive
[6]
  Activity: inactive
[7]
  Activity: inactive
[8]
  Activity: inactive
[9]
  Activity: inactive
[10]
  Activity: inactive
[11]
  Activity: inactive
[12]
  Activity: inactive
[13]
  Activity: inactive
[14]
  Activity: inactive
[15]
  Activity: inactive
[16]
  Activity: inactive

## CC1=CCC[C@H]2[C@](C)(CC/C(C)=C/Cn3c[n+](C)c4ncnc(N)c43)[C@@H](C)CC[C@@]12C
[1]
  Activity: inactive
[2]
  Activity: inactive
[3]
  Activity: inactive
[4]
  Activity: inactive
[5]
  Activity: inactive
[6]
  Activity: inactive
[7]
  Activity: inactive
[8]
  Activity: inactive
[9]
  Activity: inactive
[10]
  Activity: inactive
[11]
  Activity: inactive
[12]
  Activity: inactive
[13]
  Activity: inactive
[14]
  Activity: inactive
[15]
  Activity: inactive
[16]
  Activity: inactive

## C=C1[C@H](O)CC[C@H]2[C@](C)(CC/C(C)=C/Cn3c[n+](C)c4ncnc(N)c43)[C@@H](C)CC[C@@]12C
[4]
  Activity: Active

## CC1=CCC[C@@H]2[C@@](C)(CC/C(C)=C/Cn3c[n+](C)c4ncnc(N)c43)[C@H](C)CC[C@@]12C
[1]
  Activity: inactive
[2]
  Activity: inactive
[4]
  Activity: inactive
[9]
  Activity: inactive
[11]
  Activity: Active

## C/C(=C\Cn1c[n+](C)c2ncnc(N)c21)CC[C@]1(C)[C@@H](C)CC[C@@]2(C)C(COC(=O)c3ccc[nH]3)=CCC[C@@H]12
[1]
  Activity: inactive
[2]
  Activity: inactive
[4]
  Activity: inactive
[9]
  Activity: inactive
[11]
  Activity: Active

## CC1=CCC[C@H](C)[C@@]1(C)CC/C(C)=C/CC/C(C)=C/Cn1c[n+](C)c2ncnc(N)c21
[6]
  Activity: Active
[11]
  Activity: Active
